According to PMC11352258, “The Influence of Betulin and Its Derivatives on Selected Colorectal Cancer Cell Lines’ Viability and Their Antioxidant Systems” (Cells, 2024):
Values joined by “and” are separate entries in the source; they are usually repeats but may differ in a detail not shown here. Equal values may be shown once.

Columns and labels:
Caco2 cells = assay: MTT cytotoxicity assay, Caco2; type: cell-based; conditions: Homo sapiens, Caco-2; Caco2, MTT, 24 h; read-out: IC50 value
[1] = test system: CAT gene expression in RKO cells; assay: CAT mRNA, real-time RT-qPCR, RKO; type: cell-based; conditions: 10 µg/mL, 24 h
Experimental: (§1) In addition, two colorectal cancer cell lines, RKO and SW1116, were distinguished based on a different response to the EB5 derivative. To perform subsequent analyses, the selected CRC lines were treated with EB5 derivative at a concentration of 10 µg/mL for 24 h. Untreated cells were used as a negative control. Three biological replicates were performed.
(§2) Total RNA from treated cells was extracted using TRIzol reagent (Sigma-Aldrich, St Louis, MO, USA) according to the manufacturer’s instructions. The obtained RNA was assessed qualitatively and quantitatively by agarose gel electrophoresis and by spectrophotometric measurement using MaestroNano MN-913 (MaestroGen Inc., Las Vegas, NV, USA), respectively. The obtained extracts provided the starting material for the assessment of genes changes at the mRNA level.
(§3) Changes in the expression of SOD1, SOD2, CAT and GPX3 genes involved in antioxidant systems were assessed by real-time RT-qPCR using a LightCycler® 480 System apparatus (Roche, Basel, Switzerland). A commercially purchased GoTaq® 1-Step RT-qPCR System (Promega, Madison, WI, USA) was used, while the primers and reaction conditions were the same as in the previous study performed by Kruszniewska-Rajs et al.. GAPDH was used as the reference gene. The mRNA expression level studied genes were then determined by the 2^−ΔCt relative quantification method. All samples were tested in triplicate. The specificity of the reaction was evaluated based on the melting temperature curve, as well as using electrophoresis of the amplification products in a 2% agarose gel.

HCT116 cells = assay: MTT cytotoxicity assay, HCT116; type: cell-based; conditions: Homo sapiens; HCT 116, MTT, 24 h; read-out: IC50 value
Excerpt: (§4) Control cells were not treated with the compounds.

RKO cells [2] = assay: Lipid peroxidation, MDA assay, RKO; type: cell-based; conditions: 10 µg/mL, 24 h
Experimental: (§5) In addition, two colorectal cancer cell lines, RKO and SW1116, were distinguished based on a different response to the EB5 derivative. […] Untreated cells were used as a negative control. Three biological replicates were performed. To examine the antioxidant capacity of the cells as well as lipid peroxidation and to evaluate the activity of antioxidant enzymes, the cells were suspended in lysis buffer (containing 4 mg of […]™ Protease Inhibitor Cocktail and 10 µL of Phosphatase Inhibitor Cocktail 3 in 1 mL of PBS; Sigma-Aldrich, St Louis, MO, USA). Subsequently, the cells were placed in liquid nitrogen for 30 min, followed by storage at −80 °C until further analysis. To assess the level of lipid peroxidation, the Malondialdehyde Assay Kit (Aoxre BioSciences, Burlingame, CA, USA) was used, according to the manufacturer’s recommendations.

[3] = test system: catalase (CAT) activity in SW1116 cells; assay: CAT activity in SW1116 cells; type: cell-based; conditions: SW1116, 10 µg/mL, 24 h
Experimental: as §1
(§6) To examine the antioxidant capacity of the cells as well as lipid peroxidation and to evaluate the activity of antioxidant enzymes, the cells were suspended in lysis buffer (containing 4 mg of […]™ Protease Inhibitor Cocktail and 10 µL of Phosphatase Inhibitor Cocktail 3 in 1 mL of PBS; Sigma-Aldrich, St Louis, MO, USA). Subsequently, the cells were placed in liquid nitrogen for 30 min, followed by storage at −80 °C until further analysis.
(§7) Superoxide dismutase (SOD), glutathione peroxidase (GPx) and catalase (CAT) activities were assessed using a commercially purchased Cayman Chemicals Superoxide Dismutase Assay Kit, a Cayman Chemicals Glutathione Peroxidase Assay Kit and a Catalase Assay Kit (Cayman Chemicals, Ann Arbor, MI, USA), respectively, according to the manufacturer’s recommendations and based on a previous study. The cell supernatant from previously prepared cell lysates of the tested lines provided material for further analyses. The level of change in absorbance was measured spectrophotometrically at the appropriate wavelength for the assay, i.e., for SOD in the range 440–460 nm, for GPx at 340 nm and for CAT at 540 nm.

[4] = test system: SOD2 gene expression in SW1116 cells; assay: SOD2 mRNA, real-time RT-qPCR, SW1116; type: cell-based; conditions: SW1116, 10 µg/mL, 24 h
Experimental: as §1, §2, §3

DLD-1 cells = assay: MTT cytotoxicity assay, DLD-1; type: cell-based; conditions: Homo sapiens; DLD-1, MTT, 24 h; read-out: IC50 value
Excerpt: as §4

RKO cells [5] = assay: Total antioxidant capacity (ABTS+), RKO; type: cell-based; conditions: 10 µg/mL, 24 h
Experimental: as §1, §6
The ABTS+ radical cation was used to assess the total antioxidant capacity (TAC) of the tested cells. The principle of the method is based on the reduction of the formed blue-green chromophore ABTS+ as a result of the reaction of ABTS (Sigma-Aldrich, St Louis, MO, USA) with potassium persulphate (Sigma-Aldrich, St Louis, MO, USA). The degree of decolorization of the ABTS+ radical cation depends on the antioxidant activity of the cells and is determined as a function of concentration and time in relation to Trolox reactivity (TEAC-Trolox equivalent antioxidant capacity).

SW1116 cells [6] = assay: Lipid peroxidation, MDA assay, SW1116; type: cell-based; conditions: SW1116, 10 µg/mL, 24 h
Experimental: as §5

HT29 cells = assay: MTT cytotoxicity assay, HT29; type: cell-based; conditions: Homo sapiens, HT-29; HT29, MTT, 24 h; read-out: IC50 value
Excerpt: as §4

CCD-841CoN cells = assay: cells; type: cell-based; conditions: Homo sapiens; CCD-841CoN normal cells, MTT, 24 h; read-out: IC50 value
Excerpt: as §4

SW1116 cells [7] = assay: MTT cytotoxicity assay, SW1116; conditions: for viability at 10 µg/mL / IC50: Homo sapiens, SW 1116, 24 h; for IC50: read-out: IC50 value
Experimental: (§8) Six colorectal cancer cell lines, RKO, HT29, DLD-1, HCT116, Caco2 and SW1116 (CRL-2577, HTB-38, CCL-221, CCL-247, HTB-37, CCL-233; ATCC, Manassas, VA, USA, respectively, for CRC lines), and one normal cell line, CCD-841CoN (CRL-1790, ATCC, USA), were routinely cultured at 37 °C in a 5% CO2 incubator (Direct Heat CO2; Thermo Scientific, Waltham, MA, USA) in cell line-appropriate culture medium according to the manufacturer’s recommendations. Eagle’s minimum essential medium (EMEM) was used to culture RKO, Caco2 and CCD-841CoN lines, while McCoy’s 5A medium was used for HT29 and HCT116 lines. DLD-1 cells were grown in RPMI-1640 medium, whereas SW1116 cells were maintained in Leibovitz’s L-15 medium. All culture media were supplemented with 10% fetal bovine serum (EuroClone, Milan, Italy), and gentamycin at the concentration […] (BioWhittaker, Lonza, Basel, Switzerland) was also applied to prevent culture contamination.
(§9) For this purpose, cells were exposed to the test compound for 24 h at concentrations of 0.1, 1, 10, 20, 50 and 100 μg/mL. Control cells were not treated with the compounds. MTT (0.25 mg/mL) was then added to the cultures and incubated for 3 h at 37 °C. After a time, the cells were washed with phosphate buffered saline (PBS), and next, formazan dye was dissolved in 100 μL of dimethyl sulfoxide (Sigma-Aldrich, St Louis, MO, USA). Absorbance was measured at 540 nm using a Wallac 1420 VICTOR microplate reader (PerkinElmer, Waltham, MA, USA).

[8] = test system: CAT gene expression in SW1116 cells; assay: CAT mRNA, real-time RT-qPCR, SW1116; type: cell-based; conditions: SW1116, 10 µg/mL, 24 h
Experimental: as §1, §2, §3

[9] = test system: superoxide dismutase (SOD) activity in SW1116 cells; assay: SOD activity in SW1116 cells; type: cell-based; conditions: SW1116, 10 µg/mL, 24 h
Experimental: as §1, §6
as §7, with “The cell supernatant from previously prepared cell lysates of the tested lines provided material for further analyses.” left out

[10] = test system: SOD1 gene expression in SW1116 cells; assay: SOD1 mRNA, real-time RT-qPCR, SW1116; type: cell-based; conditions: SW1116, 10 µg/mL, 24 h
Experimental: as §1, §2, §3

[11] = test system: SOD1 gene expression in RKO cells; assay: SOD1 mRNA, real-time RT-qPCR, RKO; type: cell-based; conditions: 10 µg/mL, 24 h
Experimental: as §1, §2, §3

RKO cells [12] = assay: MTT cytotoxicity assay, RKO; conditions: 24 h; for viability at 10 µg/mL / IC50: Homo sapiens; for IC50: read-out: IC50 value
Experimental: as §8, §9

[13] = test system: catalase (CAT) activity in RKO cells; assay: CAT activity in RKO cells; type: cell-based; conditions: 10 µg/mL, 24 h
Experimental: as §1, §6
as §7, with “The cell supernatant from previously prepared cell lysates of the tested lines provided material for further analyses.” left out

[14] = test system: superoxide dismutase (SOD) activity in RKO cells; assay: SOD activity in RKO cells; type: cell-based; conditions: 10 µg/mL, 24 h
Experimental: as §1, §6
as §7, with “The cell supernatant from previously prepared cell lysates of the tested lines provided material for further analyses.” left out

in vitro = type: cell-based; conditions: human
Excerpt: as §4

[15] = test system: SOD2 gene expression in RKO cells; assay: SOD2 mRNA, real-time RT-qPCR, RKO; type: cell-based; conditions: 10 µg/mL, 24 h
Experimental: as §1, §2, §3

Structure (SMILES)	IC50 (Caco2 cells)	IC50 (HCT116 cells)	increase in MDA levels compared to the control cells (RKO cells [2])	catalase activity compared to the control [3]	SOD2 gene expression vs. cisplatin [4]	IC50 (DLD-1 cells)	MDA level compared to the control (SW1116 cells [6])	IC50 (HT29 cells)	IC50 (CCD-841CoN cells)	viability at 10 µg/mL (SW1116 cells [7]) [%]	IC50 (SW1116 cells [7])	viability at 10 µg/mL (RKO cells [12]) [%]	IC50 (RKO cells [12])	also measured
C=C(C)[C@@H]1CC[C@]2(CO)CC[C@]3(C)[C@H](CC[C@@H]4[C@@]5(C)CC[C@H](O)C(C)(C)[C@@H]5CC[C@]43C)[C@@H]12 [Betulin, lup-20(29)-ene-3β,28-diol]	11.2 µg/mL and 26.5 µM	4.63 µg/mL and 11 µM	about 73.1%	did not cause changes	Decreased SOD2 gene expression	4.29 µg/mL and 10.2 µM	did not cause changes	8.49 µg/mL and 20.1 µM	5.26 µg/mL and 12.4 µM	≥ 50	9.77 µg/mL and 23.1 µM	≥ 50	11.2 µg/mL and 25.2 µM	CAT gene expression vs. untreated cells [1]: No statistically significant changes; reduction in TAC compared to the control cells (RKO cells [5]): about 26.4%; decrease in the viability (SW1116 cells [7]; SW1116, 10 µg/mL, 24 h): ≤ 50%; CAT gene expression vs. EB5 derivative [8]: decrease in expression was higher; CAT gene expression vs. cisplatin [8]: decrease in expression was higher; CAT gene expression vs. untreated cells [8]: statistically significant decrease in CAT gene expression; increase in SOD activity compared to the untreated cells [9]: about 32.3%; SOD1 gene expression vs. EB5 derivative [10]: statistically significant difference; SOD1 gene expression vs. cisplatin [10]: statistically significant difference; SOD1 gene expression vs. non-treated cells [10]: statistically significant decrease in mRNA expression; SOD1 gene expression vs. non-treated cells ([10]; listed as B): statistically significant difference; SOD1 gene expression vs. cisplatin-treated cells [11]: decrease in SOD1 gene expression; decrease in the viability (RKO cells [12]; 10 µg/mL): ≤ 50%
C#CC(=O)OC[C@]12CC[C@@H](C(=C)C)[C@@H]1[C@H]1CC[C@@H]3[C@@]4(C)CC[C@H](O)C(C)(C)[C@@H]4CC[C@@]3(C)[C@]1(C)CC2 [EB5, 28-propynylobetulin]	16.9 µg/mL and 34.2 µM	16.7 µg/mL and 33.7 µM	about 98.0%	did not cause changes	Decreased SOD2 gene expression	11.1 µg/mL and 22.4 µM	did not cause changes	8.25 µg/mL and 16.7 µM	> 100 µg/mL and > 202 µM	≥ 50	34.4 µg/mL and 69.5 µM	≥ 50	12.2 µg/mL and 24.6 µM	CAT gene expression vs. 5FU [1]: significant increase in expression; CAT gene expression vs. cisplatin [1]: significant decrease in expression; CAT activity compared to the betulin-treated cells [13]: slight decrease; SOD2 gene expression vs. 5FU [4]: Decreased SOD2 gene expression; SOD activity compared to cells treated with betulin [14]: modest increase; viability at 24 h, 100 μg/mL (in vitro): ≥ 50%; SOD2 gene expression vs. cisplatin [15]: significant decrease in SOD2 gene expression
